In patent US20240308995A1, “O-GLYCOPROTEIN-2-ACETAMIDO-2-DEOXY-3-D-GLUCOPYRANOSIDASE INHIBITORS” (BIOGEN MA INC., priority 2018, published 2024):
Counter-ions that a name gives are not always drawn.

How the values were obtained:
[1] = molecular target: Recombinant full length human OGA enzyme (Homo sapiens (Human), UniProt O60502); test: OGA Enzyme Inhibition Biochemical Assay
Procedure: Recombinant full length human OGA enzyme was purchased from Origene. 4-MUGlcNAc substrate was purchased from Sigma. All other reagents were purchased from Sigma or Fisher. Assay buffer consists of the McIlvaine buffer system, pH 6.4 (0.2M Na2HPO4 mixed with 0.1M citric acid) and 0.01% BSA. […] Reactions were incubated for 90 minutes at room temperature and quenched with 40 μl of 3M glycine, pH 10 and read on a Perkin Elmer Envision plate reader (Ex: 355 nm/Em: 460 nm). Compounds were tested with a 10-point dose-response starting from 20 μM with a 4-fold dilution. Data was fit using GraphPad Prism using a 4-parameter fit with variable slope.

[2] = molecular target: OGA (S400 O-GLCNAC), HEK-293T cells transfected with Tau-V5 (Homo sapiens (Human), UniProt O60502); test: Cellular OGA-Tau MSD Assay; assay type: cell-based
Procedure: HEK-293T cells were transfected with […] and Tau-V5 plasmids using Lipofectamine and grown overnight. Next day, the cells were collected and re-plated at 1×10^5 cells per well in 96 well plates. Cells were incubated for 4 hr at 37° C., before compounds were added at 1 uM, with 3-fold dilutions in a 10-point titration. Cell plates were incubated with compounds overnight at 37° C. The next day media was removed from wells by gentle aspiration and 120 ul of 1× Cell Lysis buffer mixed with protease and phosphatase cocktail added to each well. A freeze thaw was performed at -80° C., then mixed before transferring 50 ul to MSD plates coated with V5-tag antibody to capture Tau. MSD Plates were incubated overnight at 4° C., on a plate shaker. The following day, plates were washed and incubated with Tau-[…]-GlcNAc antibody for 2 hr and then developed with rabbit Sulfo-tag antibody. Final read out was carried out on an MSD 600 reader. The data was analyzed using Graph Pad or Genedata, the data was normalized and % activity versus log of compound concentration was plotted. The IC50 values were obtained from a 4 parameter fit.

[3] = 1 nM OGA, 100 μM 4-MUGlcNAc, pH 6.4
[4] = HEK-293T cells, Tau-S400-GlcNAc MSD readout
[5] = repeated assay, value marked with asterisk (*)

OGA (S400 O-GLCNAC), HEK-293T cells transfected with Tau-V5, sequence (O60502 whole entry): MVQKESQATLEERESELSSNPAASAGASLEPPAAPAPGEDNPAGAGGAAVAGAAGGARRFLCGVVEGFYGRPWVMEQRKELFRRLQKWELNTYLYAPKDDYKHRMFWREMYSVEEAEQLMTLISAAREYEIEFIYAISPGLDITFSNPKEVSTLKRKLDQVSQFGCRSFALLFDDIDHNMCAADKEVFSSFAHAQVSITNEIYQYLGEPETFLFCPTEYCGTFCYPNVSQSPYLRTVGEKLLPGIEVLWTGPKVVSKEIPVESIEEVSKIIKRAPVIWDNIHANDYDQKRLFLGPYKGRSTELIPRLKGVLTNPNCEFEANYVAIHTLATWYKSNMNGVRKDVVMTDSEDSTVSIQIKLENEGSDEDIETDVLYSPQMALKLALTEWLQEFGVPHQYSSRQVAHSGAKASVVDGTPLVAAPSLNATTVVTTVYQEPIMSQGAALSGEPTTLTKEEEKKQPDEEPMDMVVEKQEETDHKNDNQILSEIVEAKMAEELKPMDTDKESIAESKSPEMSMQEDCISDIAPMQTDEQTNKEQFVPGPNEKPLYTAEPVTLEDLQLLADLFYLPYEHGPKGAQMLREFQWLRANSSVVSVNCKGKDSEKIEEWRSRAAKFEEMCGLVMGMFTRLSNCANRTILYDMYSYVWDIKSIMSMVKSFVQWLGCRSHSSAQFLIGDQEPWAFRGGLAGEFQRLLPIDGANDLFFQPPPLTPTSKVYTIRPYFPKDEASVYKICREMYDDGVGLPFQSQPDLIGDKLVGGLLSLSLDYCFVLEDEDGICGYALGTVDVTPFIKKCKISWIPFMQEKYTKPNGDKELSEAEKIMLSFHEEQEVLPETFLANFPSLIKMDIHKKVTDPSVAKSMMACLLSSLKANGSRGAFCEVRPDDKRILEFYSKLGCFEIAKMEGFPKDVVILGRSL
Recombinant full length human OGA enzyme, sequence (O60502 whole entry): as above

IC50 [1, 3] [nM]	IC50 [2, 4] [nM]	IC50 [1, 5] [nM]	IC50 [2, 5] [nM]	SMILES
< 1	2	–	–	[2H]C([2H])([2H])Oc1cc(O[C@@H]2C[C@H](C)N(Cc3sc(NC(C)=O)nc3F)C2)ncn1 (single isomer, unassigned) [Example 1-155]
< 1	3	–	–	[2H]C([2H])([2H])C(=O)Nc1nc(F)c(CN2C[C@H](Oc3cc(OC)ncn3)C[C@@H]2C)s1 (single isomer, unassigned) [Example 1-157, trifluoroacetate salt]
< 1	1	–	–	[2H]C(c1sc(NC(C)=O)nc1F)N1C[C@H](Oc2cc(OC)ncn2)C[C@@H]1C (single isomer, unassigned) [Example 1-159]
< 1	4	–	–	[2H]C([2H])(c1sc(NC(C)=O)nc1F)N1C[C@H](Oc2cc(OC)ncn2)C[C@@H]1C (single isomer, unassigned) [Example 1-161]
< 1	2	–	–	[2H][C@@]1(Oc2cc(OC)ncn2)C[C@H](C)N(Cc2sc(NC(C)=O)nc2F)C1 (single isomer, unassigned) [Example 1-165]
1.2	6	–	–	CC(=O)Nc1ncc(CN2C[C@H](Oc3ccc(F)cn3)CC[C@@H]2C)s1 [Example 1-4, N-(5-(((2S,5R)-5-((5-fluoropyridin-2-yl)oxy)-2-methylpiperidin-1-yl)methyl)thiazol-2-yl)acetamide]
1.6	4	–	–	CC(=O)Nc1ncc(CN2C[C@@H](Oc3ccc(F)cn3)CC[C@@H]2C)s1 [Example 1-5, N-(5-(((2S,5S)-5-((5-fluoropyridin-2-yl)oxy)-2-methylpiperidin-1-yl)methyl)thiazol-2-yl)acetamide]
> 1000	–	2000	–	CC(=O)Nc1ncc(CN2CC[C@H](Oc3ccc(F)cn3)C2)s1 [Example 1-7, (S)—N-(5-((3-((5-fluoropyridin-2-yl)oxy)pyrrolidin-1-yl)methyl)thiazol-2-yl)acetamide]
1.2	–	–	6	COc1ncnc(O[C@@H]2C[C@H](C)N(Cc3cnc(NC(C)=O)s3)C2)c1F [Example 1-19, N-(5-(((2S,4R)-4-((5-fluoro-6-methoxypyrimidin-4-yl)oxy)-2-methylpyrrolidin-1-yl)methyl)thiazol-2-yl)acetamide]
< 1	2	–	–	COc1cc(O[C@@H]2C[C@H](C)N(Cc3sc(NC(C)=O)nc3F)C2)ncn1 [Example 1-22, N-(4-Fluoro-5-(((2S,4R)-4-((6-methoxypyrimidin-4-yl)oxy)-2-methylpyrrolidin-1-yl)methyl)thiazol-2-yl)acetamide]
< 1	1	–	–	CC(=O)Nc1nc(F)c(CN2C[C@H](Oc3cc(N4CCC4)ncn3)C[C@@H]2C)s1 [Example 1-24, N-(5-(((2S,4R)-4-((6-(azetidin-1-yl)pyrimidin-4-yl)oxy)-2-methylpyrrolidin-1-yl)methyl)-4-fluorothiazol-2-yl)acetamide]
< 1	< 1	–	–	CC(=O)Nc1nc(F)c(CN2C[C@H](Oc3cc(N4CC(F)C4)ncn3)C[C@@H]2C)s1 [Example 1-25, N-(4-fluoro-5-(((2S,4R)-4-((6-(3-fluoroazetidin-1-yl)pyrimidin-4-yl)oxy)-2-methylpyrrolidin-1-yl)methyl)thiazol-2-yl)acetamide]
< 1	1	–	–	CC(=O)Nc1nc(F)c(CN2C[C@H](Oc3cc(N4CC(F)(F)C4)ncn3)C[C@@H]2C)s1 [Example 1-26, N-(5-(((2S,4R)-4-((6-(3,3-difluoroazetidin-1-yl)pyrimidin-4-yl)oxy)-2-methylpyrrolidin-1-yl)methyl)-4-fluorothiazol-2-yl)acetamide]
850	–	–	–	COc1cc(O[C@H]2CCN(Cc3sc(NC(C)=O)nc3F)C2)ncn1 [Example 1-27, (S)—N-(4-fluoro-5-((3-((6-methoxypyrimidin-4-yl)oxy)pyrrolidin-1-yl)methyl)thiazol-2-yl)acetamide]
58	97	–	–	COc1cc(O[C@@H]2C[C@@H](C)N(Cc3sc(NC(C)=O)nc3F)C2)ncn1 [Example 1-29, N-(4-fluoro-5-(((2R,4R)-4-((6-methoxypyrimidin-4-yl)oxy)-2-methylpyrrolidin-1-yl)methyl)thiazol-2-yl)acetamide]
15	21	–	–	COc1cc(O[C@H]2C[C@H](C)N(Cc3sc(NC(C)=O)nc3F)C2)ncn1 [Example 1-30, N-(4-fluoro-5-(((2S,4S)-4-((6-methoxypyrimidin-4-yl)oxy)-2-methylpyrrolidin-1-yl)methyl)thiazol-2-yl)acetamide]
2900	> 1000	–	–	COc1cc(O[C@H]2C[C@@H](C)N(Cc3sc(NC(C)=O)nc3F)C2)ncn1 [Example 1-31, N-(4-fluoro-5-(((2R,4S)-4-((6-methoxypyrimidin-4-yl)oxy)-2-methylpyrrolidin-1-yl)methyl)thiazol-2-yl)acetamide]
1700	–	–	–	COc1cc(O[C@H]2CCN(Cc3cnc(NC(C)=O)s3)C2)ncn1 [Example 1-36, (S)—N-(5-((3-((6-methoxypyrimidin-4-yl)oxy)pyrrolidin-1-yl)methyl)thiazol-2-yl)acetamide]
36	27	–	–	COc1cc(O[C@@H]2CCN(Cc3cnc(NC(C)=O)s3)C2)ncn1 [Example 1-37, (R)—N-(5-((3-((6-methoxypyrimidin-4-yl)oxy)pyrrolidin-1-yl)methyl)thiazol-2-yl)acetamide]
–	5	–	–	CC(=O)Nc1ncc(CN2C[C@H](Oc3cc(=O)n(C)cn3)C[C@@H]2C)s1 [Example 1-70, N-(5-(((2S,4R)-2-methyl-4-((1-methyl-6-oxo-1,6-dihydropyrimidin-4-yl)oxy)pyrrolidin-1-yl)methyl)thiazol-2-yl)acetamide]
< 1	–	–	–	CC(=O)Nc1nc(F)c(CN2C[C@H](Oc3cc(C)c(F)cn3)C[C@@H]2C)s1 [Example 1-117, N-(4-fluoro-5-(((2S,4R)-4-((5-fluoro-4-methylpyridin-2-yl)oxy)-2-methylpyrrolidin-1-yl)methyl)thiazol-2-yl)acetamide]
< 1	–	–	–	COCCOc1cnc(O[C@@H]2C[C@H](C)N(Cc3sc(NC(C)=O)nc3F)C2)cn1 [Example 1-144, N-(4-fluoro-5-(((2S,4R)-4-((5-(2-methoxyethoxy)pyrazin-2-yl)oxy)-2-methylpyrrolidin-1-yl)methyl)thiazol-2-yl)acetamide]
< 1	–	–	–	COCCN(C)c1ccnc(O[C@@H]2C[C@H](C)N(Cc3sc(NC(C)=O)nc3F)C2)c1 [Example 1-145, N-(4-fluoro-5-(((2S,4R)-4-((4-((2-methoxyethyl) (methyl)amino)pyridin-2-yl)oxy)-2-methylpyrrolidin-1-yl)methyl)thiazol-2-yl)acetamide]
< 1	–	–	–	CC(=O)Nc1nc(F)c(CN2C[C@H](Oc3ccc(N4CCOCC4)cn3)C[C@@H]2C)s1 [Example 1-146, N-(4-fluoro-5-(((2S,4R)-2-methyl-4-((5-morpholinopyridin-2-yl)oxy)pyrrolidin-1-yl)methyl)thiazol-2-yl)acetamide]
< 1	–	–	–	COCCOc1ccnc(O[C@@H]2C[C@H](C)N(Cc3sc(NC(C)=O)nc3F)C2)c1 [Example 1-147, N-(4-fluoro-5-(((2S,4R)-4-((4-(2-methoxyethoxy)pyridin-2-yl)oxy)-2-methylpyrrolidin-1-yl)methyl)thiazol-2-yl)acetamide]
